Data published in patent US20230085307A1, “PYRIDAZINONE COMPOUND AND HERBICIDE” (NISSAN CHEMICAL CORPORATION, priority 2019, published 2023).

Tests used:
late watergrass = assay: Test Example 1: herbicidal activity, application before weed generation under submerged conditions (Table 16, symbol A); format: in vivo, late watergrass (Echinochloa oryzicola); conditions: 320 g/ha applied herbicide
How it was run: (§1)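 Submerged Wagner pots (alluvial soil, 4 cm water) sown with weed seeds and planted with 2.5-leaf rice seedlings; emulsifiable concentrate diluted in water applied to water surface on sowing day. Held in greenhouse at 25-30 °C; injury scored 0-5 by herbicidal rate after three weeks.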

Japanese bulrush = assay: Test Example 1: herbicidal activity, application before weed generation under submerged conditions (Table 16, symbol B); format: in vivo, Japanese bulrush (Schoenoplectus juncoides); conditions: 320 g/ha applied herbicide
How it was run: as §1

oval-leafed pondweed = assay: Test Example 1: herbicidal activity, application before weed generation under submerged conditions (Table 16, symbol C); format: in vivo, oval-leafed pondweed (Monochoria vaginalis); conditions: 320 g/ha applied herbicide
How it was run: as §1

barnyard grass [1] = assay: Test Example 3: herbicidal effect by foliage application, Wagner pot (Table 18, symbol H); format: in vivo, barnyard grass (Echinochloa crus-galli); conditions: amount of applied herbicide 320 g/ha
How it was run: (§2)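 Plants were sown in alluvial soil held under 0.1–0.5 cm standing water and grown 14 days in a greenhouse at 25–30 °C. An emulsifiable formulation, water-diluted to the set dose, was then sprayed onto the foliage, and effects were scored three weeks later using previously defined criteria.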

Chinese sprangletop = assay: Test Example 3: herbicidal effect by foliage application, Wagner pot (Table 18, symbol D); format: in vivo, chinese sprangletop (Leptochloa chinensis); conditions: amount of applied herbicide 320 g/ha
How it was run: as §2

rice flat sedge = assay: Test Example 3: herbicidal effect by foliage application, Wagner pot (Table 18, symbol E); format: in vivo, rice flat sedge (Cyperus iria); conditions: amount of applied herbicide 320 g/ha
How it was run: as §2

southern crabgrass [2] = assay: Test Example 4: herbicidal effect by soil treatment (Table 19, symbol F); format: in vivo, southern crabgrass (Digitaria ciliaris); conditions: amount of applied herbicide 320 g/ha
How it was run: (§3)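 In this soil treatment, the formulated compound reached the seeds only through the soil: seeds were buried about 1.5 cm deep in sterilized diluvial soil, then the diluted emulsion was sprayed over the surface. After three weeks at 25° C. to 30° C. in a greenhouse, effects were graded on criteria from an earlier test.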

green foxtail [3] = assay: Test Example 4: herbicidal effect by soil treatment (Table 19, symbol G); format: in vivo, green foxtail (Setaria viridis); conditions: amount of applied herbicide 320 g/ha
How it was run: as §3

barnyard grass [4] = assay: Test Example 4: herbicidal effect by soil treatment (Table 19, symbol H); format: in vivo, barnyard grass (Echinochloa crus-galli); conditions: amount of applied herbicide 320 g/ha
How it was run: as §3

wild oat [5] = assay: Test Example 4: herbicidal effect by soil treatment (Table 19, symbol I); format: in vivo, wild oat (Avena fatua); conditions: amount of applied herbicide 320 g/ha
How it was run: as §3

blackgrass [6] = assay: Test Example 4: herbicidal effect by soil treatment (Table 19, symbol J); format: in vivo, blackgrass (Alopecurus myosuroides); conditions: amount of applied herbicide 320 g/ha
How it was run: as §3

Italian ryegrass [7] = assay: Test Example 4: herbicidal effect by soil treatment (Table 19, symbol K); format: in vivo, Italian ryegrass (Lolium multiflorum); conditions: amount of applied herbicide 320 g/ha
How it was run: as §3

windgrass [8] = assay: Test Example 4: herbicidal effect by soil treatment (Table 19, symbol L); format: in vivo, windgrass (Apera spica-venti); conditions: amount of applied herbicide 320 g/ha
How it was run: as §3

velvetleaf [9] = assay: Test Example 4: herbicidal effect by soil treatment (Table 19, symbol M); format: in vivo, velvetleaf (Abutilon theophrasti); conditions: amount of applied herbicide 320 g/ha
How it was run: as §3

redroot pigweed [10] = assay: Test Example 4: herbicidal effect by soil treatment (Table 19, symbol N); format: in vivo, redroot pigweed (Amaranthus retroflexus); conditions: amount of applied herbicide 320 g/ha
How it was run: as §3

lambsquarters [11] = assay: Test Example 4: herbicidal effect by soil treatment (Table 19, symbol O); format: in vivo, lambsquarters (Chenopodium album); conditions: amount of applied herbicide 320 g/ha
How it was run: as §3

chickweed [12] = assay: Test Example 4: herbicidal effect by soil treatment (Table 19, symbol P); format: in vivo, common chickweed (Stellaria media); conditions: amount of applied herbicide 320 g/ha
How it was run: as §3

persian speedwell [13] = assay: Test Example 4: herbicidal effect by soil treatment (Table 19, symbol R); format: in vivo, Persian speedwell (Veronica persica); conditions: amount of applied herbicide 320 g/ha
How it was run: as §3

southern crabgrass [14] = assay: Test Example 5: herbicidal effect by foliage application, plastic box (Table 20, symbol F); format: in vivo, southern crabgrass (Digitaria ciliaris); conditions: foliage application, AAH 320 g/ha, evaluated three weeks after application
How it was run: (§4)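 Plants were sown into sterilized diluvial soil under about 1.5 cm cover and kept in a greenhouse at 25° C. to 30° C. Fourteen days on, foliage received an even spray of the diluted emulsion. Herbicidal or crop effect was judged three weeks afterwards.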

green foxtail [15] = assay: Test Example 5: herbicidal effect by foliage application, plastic box (Table 20, symbol G); format: in vivo, green foxtail (Setaria viridis); conditions: foliage application, AAH 320 g/ha, evaluated three weeks after application
How it was run: as §4

barnyard grass [16] = assay: Test Example 5: herbicidal effect by foliage application, plastic box (Table 20, symbol H); format: in vivo, barnyard grass (Echinochloa crus-galli); conditions: foliage application, AAH 320 g/ha, evaluated three weeks after application
How it was run: as §4

wild oat [17] = assay: Test Example 5: herbicidal effect by foliage application, plastic box (Table 20, symbol I); format: in vivo, wild oat (Avena fatua); conditions: foliage application, AAH 320 g/ha, evaluated three weeks after application
How it was run: as §4

blackgrass [18] = assay: Test Example 5: herbicidal effect by foliage application, plastic box (Table 20, symbol J); format: in vivo, blackgrass (Alopecurus myosuroides); conditions: foliage application, AAH 320 g/ha, evaluated three weeks after application
How it was run: as §4

Italian ryegrass [19] = assay: Test Example 5: herbicidal effect by foliage application, plastic box (Table 20, symbol K); format: in vivo, Italian ryegrass (Lolium multiflorum); conditions: foliage application, AAH 320 g/ha, evaluated three weeks after application
How it was run: as §4

windgrass [20] = assay: Test Example 5: herbicidal effect by foliage application, plastic box (Table 20, symbol L); format: in vivo, windgrass (Apera spica-venti); conditions: foliage application, AAH 320 g/ha, evaluated three weeks after application
How it was run: as §4

velvetleaf [21] = assay: Test Example 5: herbicidal effect by foliage application, plastic box (Table 20, symbol M); format: in vivo, velvetleaf (Abutilon theophrasti); conditions: foliage application, AAH 320 g/ha, evaluated three weeks after application
How it was run: as §4

redroot pigweed [22] = assay: Test Example 5: herbicidal effect by foliage application, plastic box (Table 20, symbol N); format: in vivo, redroot pigweed (Amaranthus retroflexus); conditions: foliage application, AAH 320 g/ha, evaluated three weeks after application
How it was run: as §4

lambsquarters [23] = assay: Test Example 5: herbicidal effect by foliage application, plastic box (Table 20, symbol O); format: in vivo, lambsquarters (Chenopodium album); conditions: foliage application, AAH 320 g/ha, evaluated three weeks after application
How it was run: as §4

chickweed [24] = assay: Test Example 5: herbicidal effect by foliage application, plastic box (Table 20, symbol P); format: in vivo, common chickweed (Stellaria media); conditions: foliage application, AAH 320 g/ha, evaluated three weeks after application
How it was run: as §4

persian speedwell [25] = assay: Test Example 5: herbicidal effect by foliage application, plastic box (Table 20, symbol R); format: in vivo, Persian speedwell (Veronica persica); conditions: foliage application, AAH 320 g/ha, evaluated three weeks after application
How it was run: as §4

Cc1nn(C)c(=O)c(-c2c(-c3ccc(CSC(C)C)cc3)sc3ccc(F)cc23)c1O [2-321]
Herbicidal effect on A: late watergrass (grade 0-5) (late watergrass): 3 (Herbicidal rate of 40% or more and less than 70%)
Herbicidal effect on B: Japanese bulrush (grade 0-5) (Japanese bulrush): 3 (Herbicidal rate of 40% or more and less than 70%)
Herbicidal effect on C: oval-leafed pondweed (grade 0-5) (oval-leafed pondweed): 0 (Herbicidal rate of 5% or less (almost no effect))
herbicidal effect on H: barnyard grass (barnyard grass [1]): 5 (Herbicidal rate of 90% or more (almost completely withered))
herbicidal effect on D: Chinese sprangletop (Chinese sprangletop): 3 (Herbicidal rate of 40% or more and less than 70%)
herbicidal effect on E: rice flat sedge (rice flat sedge): 5 (Herbicidal rate of 90% or more (almost completely withered))
herbicidal effect on F: southern crabgrass (southern crabgrass [2]): 3 (Herbicidal rate of 40% or more and less than 70%)
herbicidal effect on G: green foxtail (green foxtail [3]): 4 (Herbicidal rate of 70% or more and less than 90%)
herbicidal effect on H: barnyard grass (barnyard grass [4]): 3 (Herbicidal rate of 40% or more and less than 70%)
herbicidal effect on I: wild oat (wild oat [5]): 0 (Herbicidal rate of 5% or less (almost no effect))
herbicidal effect on J: blackgrass (blackgrass [6]): 0 (Herbicidal rate of 5% or less (almost no effect))
herbicidal effect on K: Italian ryegrass (Italian ryegrass [7]): 0 (Herbicidal rate of 5% or less (almost no effect))
herbicidal effect on L: windgrass (windgrass [8]): 0 (Herbicidal rate of 5% or less (almost no effect))
herbicidal effect on M: velvetleaf (velvetleaf [9]): 1 (Herbicidal rate of 5% or more and less than 20%)
herbicidal effect on N: redroot pigweed (redroot pigweed [10]): 4 (Herbicidal rate of 70% or more and less than 90%)
herbicidal effect on O: lambsquarters (lambsquarters [11]): 3 (Herbicidal rate of 40% or more and less than 70%)
herbicidal effect on P: chickweed (chickweed [12]): 0 (Herbicidal rate of 5% or less (almost no effect))
herbicidal effect on R: persian speedwell (persian speedwell [13]): 5 (Herbicidal rate of 90% or more (almost completely withered))
F: southern crabgrass, herbicidal effect (criteria 0-5) (southern crabgrass [14]): 5 (Herbicidal rate of 90% or more (almost completely withered))
G: green foxtail, herbicidal effect (criteria 0-5) (green foxtail [15]): 5 (Herbicidal rate of 90% or more (almost completely withered))
H: barnyard grass, herbicidal effect (criteria 0-5) (barnyard grass [16]): 4 (Herbicidal rate of 70% or more and less than 90%)
I: wild oat, herbicidal effect (criteria 0-5) (wild oat [17]): 3 (Herbicidal rate of 40% or more and less than 70%)
J: blackgrass, herbicidal effect (criteria 0-5) (blackgrass [18]): 4 (Herbicidal rate of 70% or more and less than 90%)
K: Italian ryegrass, herbicidal effect (criteria 0-5) (Italian ryegrass [19]): 4 (Herbicidal rate of 70% or more and less than 90%)
L: windgrass, herbicidal effect (criteria 0-5) (windgrass [20]): 5 (Herbicidal rate of 90% or more (almost completely withered))
M: velvetleaf, herbicidal effect (criteria 0-5) (velvetleaf [21]): 5 (Herbicidal rate of 90% or more (almost completely withered))
N: redroot pigweed, herbicidal effect (criteria 0-5) (redroot pigweed [22]): 5 (Herbicidal rate of 90% or more (almost completely withered))
O: lambsquarters, herbicidal effect (criteria 0-5) (lambsquarters [23]): 5 (Herbicidal rate of 90% or more (almost completely withered))
P: chickweed, herbicidal effect (criteria 0-5) (chickweed [24]): 5 (Herbicidal rate of 90% or more (almost completely withered))
R: persian speedwell, herbicidal effect (criteria 0-5) (persian speedwell [25]): 5 (Herbicidal rate of 90% or more (almost completely withered))

Cc1nn(C)c(=O)c(-c2c(-c3ccc(F)cc3F)sc3ccc(F)cc23)c1O [2-342]
Herbicidal effect on A: late watergrass (grade 0-5) (late watergrass): 2 (Herbicidal rate of 20% or more and less than 40%)
Herbicidal effect on B: Japanese bulrush (grade 0-5) (Japanese bulrush): 3 (Herbicidal rate of 40% or more and less than 70%)
Herbicidal effect on C: oval-leafed pondweed (grade 0-5) (oval-leafed pondweed): 0 (Herbicidal rate of 5% or less (almost no effect))
herbicidal effect on H: barnyard grass (barnyard grass [1]): 5 (Herbicidal rate of 90% or more (almost completely withered))
herbicidal effect on D: Chinese sprangletop (Chinese sprangletop): 5 (Herbicidal rate of 90% or more (almost completely withered))
herbicidal effect on E: rice flat sedge (rice flat sedge): 5 (Herbicidal rate of 90% or more (almost completely withered))
herbicidal effect on F: southern crabgrass (southern crabgrass [2]): 3 (Herbicidal rate of 40% or more and less than 70%)
herbicidal effect on G: green foxtail (green foxtail [3]): 4 (Herbicidal rate of 70% or more and less than 90%)
herbicidal effect on H: barnyard grass (barnyard grass [4]): 4 (Herbicidal rate of 70% or more and less than 90%)
herbicidal effect on I: wild oat (wild oat [5]): 0 (Herbicidal rate of 5% or less (almost no effect))
herbicidal effect on J: blackgrass (blackgrass [6]): 3 (Herbicidal rate of 40% or more and less than 70%)
herbicidal effect on K: Italian ryegrass (Italian ryegrass [7]): 5 (Herbicidal rate of 90% or more (almost completely withered))
herbicidal effect on L: windgrass (windgrass [8]): 3 (Herbicidal rate of 40% or more and less than 70%)
herbicidal effect on M: velvetleaf (velvetleaf [9]): 3 (Herbicidal rate of 40% or more and less than 70%)
herbicidal effect on N: redroot pigweed (redroot pigweed [10]): 4 (Herbicidal rate of 70% or more and less than 90%)
herbicidal effect on O: lambsquarters (lambsquarters [11]): 4 (Herbicidal rate of 70% or more and less than 90%)
herbicidal effect on P: chickweed (chickweed [12]): 3 (Herbicidal rate of 40% or more and less than 70%)
herbicidal effect on R: persian speedwell (persian speedwell [13]): 3 (Herbicidal rate of 40% or more and less than 70%)
F: southern crabgrass, herbicidal effect (criteria 0-5) (southern crabgrass [14]): 5 (Herbicidal rate of 90% or more (almost completely withered))
G: green foxtail, herbicidal effect (criteria 0-5) (green foxtail [15]): 5 (Herbicidal rate of 90% or more (almost completely withered))
H: barnyard grass, herbicidal effect (criteria 0-5) (barnyard grass [16]): 5 (Herbicidal rate of 90% or more (almost completely withered))
I: wild oat, herbicidal effect (criteria 0-5) (wild oat [17]): 4 (Herbicidal rate of 70% or more and less than 90%)
J: blackgrass, herbicidal effect (criteria 0-5) (blackgrass [18]): 4 (Herbicidal rate of 70% or more and less than 90%)
K: Italian ryegrass, herbicidal effect (criteria 0-5) (Italian ryegrass [19]): 5 (Herbicidal rate of 90% or more (almost completely withered))
L: windgrass, herbicidal effect (criteria 0-5) (windgrass [20]): 5 (Herbicidal rate of 90% or more (almost completely withered))
M: velvetleaf, herbicidal effect (criteria 0-5) (velvetleaf [21]): 5 (Herbicidal rate of 90% or more (almost completely withered))
N: redroot pigweed, herbicidal effect (criteria 0-5) (redroot pigweed [22]): 5 (Herbicidal rate of 90% or more (almost completely withered))
O: lambsquarters, herbicidal effect (criteria 0-5) (lambsquarters [23]): 5 (Herbicidal rate of 90% or more (almost completely withered))
P: chickweed, herbicidal effect (criteria 0-5) (chickweed [24]): 5 (Herbicidal rate of 90% or more (almost completely withered))
R: persian speedwell, herbicidal effect (criteria 0-5) (persian speedwell [25]): 5 (Herbicidal rate of 90% or more (almost completely withered))
